This series can be described thus: Partition coefficient (log P), octanol-water titration. The series is classed as physicochemical. Particulars: 23 ℃. Here is the method:
Dissociation constant (pKa) and partition coefficient (log P) Dissociation constant (pKa) and partition coefficient (log P) of KMS88009 were measured by a pH-method using GLpKa (Sirius, UK). pKa was measured by titrating KMS88009 solution and calculated from the shape of the titration curve. […] Log P of KMS88009 was calculated by a two-phase acid-base titration in a mixture of water and octanol. Three separate potentiometric titrations of KMS88009 were carried out at 23 ℃ in various octanol-water (0.15 M KCl) mixtures (0.5% to 50% octanol). The initial pH was adjusted to 10.0 with standardized 0.5 M NaOH prior to each titration. Titrations were performed with standardized 0.5 M HCl to pH 1.8. The pKa and log P values were calculated using RefinementPro software (Sirius, UK). Values are expressed as the mean ± SD of 3 independent experiments.

As a reminder, the logP is a log measure of how a compound divides between an organic and an aqueous phase. A lower logP goes with a more hydrophilic compound.

SMILES strings stand for the structures.

Regarding `COc1ccc2cc(C=Cc3ccc(N(C)C)cc3)oc2c1` [KMS88009, 6-methoxy-2-(4-dimethylaminostyryl) benzofuran], the logP turned out to be 2.4 ± 0.19.

Source of the values: PMC3997483, “Aminostyrylbenzofuran Directly Reduces Oligomeric Amyloid-β and Reverses Cognitive Deficits in Alzheimer Transgenic Mice” (PLoS ONE, 2014).
